This is an account of results in patent US20110135774A1, “Process for Preparing a Plant Extract of Passiflora Alata and Use of Said Extract in Cosmetic and Pharmaceutical Compositions” (priority 2007, published 2011).

Common to all, as to assay type: cell-based
Holding throughout (conditions): Fibroblast

Experiment [1] concerns IL-6 secretion. The experiment can be described thus: Inhibition of IL-6 secretion in human dermal fibroblasts (Example 7.1). As to the method:
(§1) The objective of this test was to assess the anti-inflammatory potential of in vitro extracts, using human dermal fibroblast cultures. The statistical significance (p<0.05) of the data was verified by the analysis of variance (One-Way ANOVA) followed by a Tukey multiple comparison using the SYSTAT 10 software.
(§2) Human fibroblasts derived from the dermis were incubated with lipopolysaccharide (LPS) of Escherichia coli to induce the secretion of pro-inflammatory citokines IL-6 and IL-8 (Interleukin 6 and 8). The anti-inflammatory potential of the sample was identified by the reduction in the secretion of the pro-inflammatory markers. • Material used: Dermis-derived human fibroblasts, kept in culture until the tenth passage at most. […]
(§3) After stimulation, supernatants were collected, stored at −20° C. and analysed by ELISA (described below). In order to keep cell viability after stimulation, the cells were incubated with a Neutral Red solution for 3 hours and after washing with 200 μl of PBS, 200 μl of development solution were added, and the reading was performed at 540 nm. […]
(§4) For the ELISA test, 96-well plates were used. The quantification of pro-inflammatory markers was determined from the comparisons with the standard curves specifically constructed for IL-6 or IL-8. […]

Experiment [2] has as its system IL-8 secretion. The experiment can be described thus: Inhibition of IL-8 secretion in human dermal fibroblasts (Example 7.1). The procedure:
as §1, §2, §3, §4

The subject of experiment [3] is IL-6 secretion. The experiment can be described thus: Inhibition of IL-6 secretion in human dermal fibroblasts stimulated with LPS or UVB (Example 7.2). The procedure: (§5) Dermis-derived human fibroblasts were incubated with lipopolysaccharide (LPS) or UV to induce the secretion of pro-inflammatory markers IL-6 and IL-8. The anti-inflammatory potential of the sample was identified by the reduction in the secretion of the pro-inflammatory markers. Material used: Dermis-derived human fibroblasts, kept in culture until the tenth passage at most. Sterile-culture plates with 96 wells, non-sterile plates with 96 wells, conical tubes of 15 ml and 50 ml, radiation chamber with UVB lamp. 96-well plates were prepared with 2×10^4 cells/well in 100 μl μl of DMEM containing 10% SFB. The cells were incubated overnight in a CO2 oven. The culture medium was discarded and the wells were washed with 200 μl PBS. 100 μl of DMEM containing 1% SFB and the suitable stimuli were added. Incubation was carried out in a CO2 oven overnight. […] 100 μl of PBS and the suitable stimuli were added. […] After stimulation, supernatants were collected, stored at −20° C. and assessed by ELISA (described below). In order to keep cell viability after stimulation, the cells were incubated with a Neutral Red solution for 3 hours and, after washing with 200 μl of PBS, 200 μl of development solution were added, and the reading was performed at 540 nm. […] The quantification of pro-inflammatory markers was determined from the comparisons with the standard curves specifically constructed for IL-6 or IL-8. […]

In experiment [4] the test system is IL-8 secretion. The experiment can be described thus: Inhibition of IL-8 secretion in human dermal fibroblasts stimulated with LPS or UVB (Example 7.2). The procedure:
as §5

[5] abbreviates: 5 uM + LPS 10 ng/ml, reference LPS.
Where [6] appears, read: 5 uM, no LPS, reference Control.
Where [7] appears, read: LPS 10 ng/ml + 5 uM, reference LPS.
Setting [8] is: light or radiation study, UVB 0.23 J/cm2 + 5 uM, reference UVB.

By inhibition is commonly meant the percentage by which the read-out fell short of the control. On to `C[C@@H]1C[C@H]2[C@@H]3CCC4=CC(=O)C=C[C@]4(C)[C@@]3(F)[C@@H](O)C[C@]2(C)[C@@]1(O)C(=O)CO` [Dexamethasone], for which the inhibition at 5 µM amounted to 96% in the experiment on IL-6 secretion [1] (setting [5]); 71% in the experiment with IL-6 secretion [1] (setting [6]); 53% in the experiment on IL-8 secretion [2] (setting [5]); 68% with IL-8 secretion [2] (setting [6]); 94% in the experiment on IL-6 secretion [3] (setting [7]); 82% in the experiment on IL-8 secretion [4] (setting [7]).
For the compound `C[C@]12CCC(=O)C=C1CC[C@@H]1[C@@H]2[C@@H](O)C[C@@]2(C)[C@H]1CC[C@]2(O)C(=O)CO` [Hydrocortisone], the inhibition at 5 µM with IL-6 secretion [3] (setting [8]) amounted to 71%; in the experiment on IL-8 secretion [4] (setting [8]), 79%.
